Test results from ChEMBL document CHEMBL1201861, “Genomics of Drug Sensitity in Cancer screening data, Wellcome Trust Sanger Institute”.

Legend:
Experiment in all cases: cells
GR-ST = type: functional, cell-based, Homo sapiens; details: Homo sapiens, GR-ST
Description: SANGER: Inhibition of human GR-ST cell growth in a cell viability assay.

TE-1 = type: functional, cell-based, Homo sapiens; details: Homo sapiens, TE-1;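 further: growth inhibition of the human TE-1 cell line, read out with a cell viability assay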
Description: SANGER: Inhibition of human TE-1 cell growth in a cell viability assay.

L-428 = type: functional, cell-based, Homo sapiens; details: Homo sapiens, L-428
Description: SANGER: Inhibition of human L-428 cell growth in a cell viability assay.

DU-4475 = type: functional, cell-based, Homo sapiens; details: Homo sapiens, DU-4475
Description: SANGER: Inhibition of human DU-4475 cell growth in a cell viability assay.

SHP77 = type: functional, cell-based, Homo sapiens, SHP-77; details: Homo sapiens, SHP77;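 further: growth inhibition of human SHP-77 cells measured by a cell viability assay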
Description: SANGER: Inhibition of human SHP-77 cell growth in a cell viability assay.

NCI-H82 = type: functional, cell-based, Homo sapiens; details: Homo sapiens, NCI-H82;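 further: growth inhibition of NCI-H82 cells, measured with a cell viability readout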
Description: SANGER: Inhibition of human NCI-H82 cell growth in a cell viability assay.

NCI-H510A = type: functional, cell-based, Homo sapiens; details: Homo sapiens, NCI-H510A;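 further: growth inhibition of NCI-H510A cells, read out with a cell viability assay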
Description: SANGER: Inhibition of human NCI-H510A cell growth in a cell viability assay.

HCE-T = type: functional, cell-based, Homo sapiens; details: Homo sapiens, HCE-T;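 further: cell viability assay read-out, reporting inhibition of HCE-T cell growth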
Description: SANGER: Inhibition of human HCE-T cell growth in a cell viability assay.

LOX IMVI = type: functional, cell-based, Homo sapiens; details: Homo sapiens, LOX IMVI
Description: SANGER: Inhibition of human LOXIMVI cell growth in a cell viability assay.

NCI-H209 = type: functional, cell-based, Homo sapiens; details: Homo sapiens, NCI-H209;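 further: growth inhibition of human NCI-H209 cells, measured by a cell viability assay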
Description: SANGER: Inhibition of human NCI-H209 cell growth in a cell viability assay.

EW-1 = type: functional, cell-based, Homo sapiens; details: Homo sapiens, EW-1
Description: SANGER: Inhibition of human EW-1 cell growth in a cell viability assay.

KG-1 = type: functional, cell-based, Homo sapiens; details: Homo sapiens, KG-1;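 further: growth inhibition of KG-1 cells, read out by a cell viability assay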
Description: SANGER: Inhibition of human KG-1 cell growth in a cell viability assay.

QIMR-WIL = type: functional, cell-based, Homo sapiens; details: Homo sapiens, QIMR-WIL;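 further: growth inhibition of QIMR-WIL cells, read out with a cell viability assay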
Description: SANGER: Inhibition of human QIMR-WIL cell growth in a cell viability assay.

NCI-H1650 = type: functional, cell-based, Homo sapiens; details: Homo sapiens, NCI-H1650;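 further: growth inhibition of human NCI-H1650 cells measured by a cell viability assay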
Description: SANGER: Inhibition of human NCI-H1650 cell growth in a cell viability assay.

SK-MEL-2 = type: functional, cell-based, Homo sapiens; details: Homo sapiens, SK-MEL-2;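 further: growth inhibition of human SK-MEL-2 cells measured with a cell viability assay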
Description: SANGER: Inhibition of human SK-MEL-2 cell growth in a cell viability assay.

SF-539 = type: functional, cell-based, Homo sapiens; details: Homo sapiens, SF-539;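 further: Read-out is a cell viability assay, with IC50 reflecting inhibition of cell growth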
Description: SANGER: Inhibition of human SF539 cell growth in a cell viability assay.

OVCAR-4 = type: functional, cell-based, Homo sapiens; details: Homo sapiens, OVCAR-4;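 further: growth inhibition of human OVCAR-4 cells, measured with a cell viability assay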
Description: SANGER: Inhibition of human OVCAR-4 cell growth in a cell viability assay.

CW-2 = type: functional, cell-based, Homo sapiens; details: Homo sapiens, CW-2;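 further: growth inhibition of CW-2 cells, read out by a cell viability assay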
Description: SANGER: Inhibition of human CW-2 cell growth in a cell viability assay.

MN-60 = type: functional, cell-based, Homo sapiens; details: Homo sapiens, MN-60;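 further: growth inhibition of the MN-60 cell line, determined with a cell viability assay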
Description: SANGER: Inhibition of human MN-60 cell growth in a cell viability assay.

GCIY = type: functional, cell-based, Homo sapiens; details: Homo sapiens, GCIY;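 further: growth inhibition of the human GCIY cell line, read out by a cell viability assay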
Description: SANGER: Inhibition of human GCIY cell growth in a cell viability assay.

TGBC1TKB = type: functional, cell-based, Homo sapiens; details: Homo sapiens, TGBC1TKB;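 further: growth inhibition of TGBC1TKB cells, read out by a cell viability assay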
Description: SANGER: Inhibition of human TGBC1TKB cell growth in a cell viability assay.

GB-1 = type: functional, cell-based, Homo sapiens; details: Homo sapiens, GB-1;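 further: growth of GB-1 cells judged by a viability assay, IC50 marks the concentration inhibiting growth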
Description: SANGER: Inhibition of human GB-1 cell growth in a cell viability assay.

BB30-HNC = type: functional, cell-based, Homo sapiens; details: Homo sapiens, BB30-HNC;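 further: growth inhibition of the cultured cell line, read out by a cell viability assay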
Description: SANGER: Inhibition of human BB30-HNC cell growth in a cell viability assay.

DEL = type: functional, cell-based, Homo sapiens; details: Homo sapiens, DEL;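 further: growth inhibition of the human DEL cell line, read out with a cell viability assay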
Description: SANGER: Inhibition of human DEL cell growth in a cell viability assay.

KARPAS-45 = type: functional, cell-based, Homo sapiens; details: Homo sapiens, KARPAS-45;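 further: inhibition of cell line growth, read out through a viability assay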
Description: SANGER: Inhibition of human KARPAS-45 cell growth in a cell viability assay.

KINGS-1 = type: functional, cell-based, Homo sapiens; details: Homo sapiens, KINGS-1;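 further: cell viability assay measuring suppression of KINGS-1 cell growth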
Description: SANGER: Inhibition of human KINGS-1 cell growth in a cell viability assay.

SBC-1 = type: functional, cell-based, Homo sapiens; details: Homo sapiens, SBC-1;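 further: cell viability assay measuring growth inhibition of the SBC-1 cell line, IC50 being the concentration that halves growth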
Description: SANGER: Inhibition of human SBC-1 cell growth in a cell viability assay.

no-10 = type: functional, cell-based, Homo sapiens; details: Homo sapiens;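 further: growth inhibition of no-10 cells, read out with a cell viability assay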
Description: SANGER: Inhibition of human no-10 cell growth in a cell viability assay.

NCI-H1299 = type: functional, cell-based, Homo sapiens; details: Homo sapiens, NCI-H1299;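 further: growth inhibition of human NCI-H1299 cells, read out by a cell viability assay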
Description: SANGER: Inhibition of human NCI-H1299 cell growth in a cell viability assay.

GOTO = type: functional, cell-based, Homo sapiens; details: Homo sapiens, GOTO;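 further: growth inhibition of GOTO cells, read out by a cell viability assay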
Description: SANGER: Inhibition of human GOTO cell growth in a cell viability assay.

MZ1-PC = type: functional, cell-based, Homo sapiens; details: Homo sapiens, MZ1-PC;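 further: cell viability assay measuring growth inhibition of human MZ1-PC cells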
Description: SANGER: Inhibition of human MZ1-PC cell growth in a cell viability assay.

A3-KAW = type: functional, cell-based, Homo sapiens; details: Homo sapiens, A3-KAW;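 further: growth inhibition of human A3-KAW cells, read out with a cell viability assay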
Description: SANGER: Inhibition of human A3-KAW cell growth in a cell viability assay.

GI-1 = type: functional, cell-based, Homo sapiens; details: Homo sapiens, GI-1;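 further: growth inhibition of human GI-1 cells, measured with a cell viability readout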
Description: SANGER: Inhibition of human GI-1 cell growth in a cell viability assay.

OCI-AML2 = type: functional, cell-based, Homo sapiens; details: Homo sapiens, OCI-AML2;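 further: growth inhibition of OCI-AML2 cells, read out with a cell viability assay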
Description: SANGER: Inhibition of human OCI-AML2 cell growth in a cell viability assay.

Lu-65 = type: functional, cell-based, Homo sapiens; details: Homo sapiens, Lu-65;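 further: growth inhibition of Lu-65 cancer cells, read out by a cell viability assay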
Description: SANGER: Inhibition of human LU-65 cell growth in a cell viability assay.

MLMA = type: functional, cell-based, Homo sapiens; details: Homo sapiens, MLMA;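 further: growth inhibition of MLMA cells (human), determined through a cell viability readout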
Description: SANGER: Inhibition of human MLMA cell growth in a cell viability assay.

U-266 = type: functional, cell-based, Homo sapiens; details: Homo sapiens, U-266
Description: SANGER: Inhibition of human U-266 cell growth in a cell viability assay.

EW-13 = type: functional, cell-based, Homo sapiens; details: Homo sapiens, EW-13;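 further: growth inhibition of EW-13 cells, read out with a cell viability assay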
Description: SANGER: Inhibition of human EW-13 cell growth in a cell viability assay.

KP-N-YS = type: functional, cell-based, Homo sapiens; details: Homo sapiens, KP-N-YS;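 further: cell viability assay measuring inhibition of cell line growth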
Description: SANGER: Inhibition of human KP-N-YS cell growth in a cell viability assay.

NB13 = type: functional, cell-based, Homo sapiens; details: Homo sapiens, NB13;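 further: cell viability readout measuring growth inhibition of human NB13 cells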
Description: SANGER: Inhibition of human NB13 cell growth in a cell viability assay.

NH-12 = type: functional, cell-based, Homo sapiens; details: Homo sapiens, NH-12;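 further: growth inhibition of NH-12 cells, read out with a cell viability assay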
Description: SANGER: Inhibition of human NH-12 cell growth in a cell viability assay.

Ramos-2G6-4C10 = type: functional, cell-based, Homo sapiens; details: Homo sapiens, Ramos-2G6-4C10;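 further: growth inhibition of the cell line, measured by a cell viability read-out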
Description: SANGER: Inhibition of human Ramos-2G6-4C10 cell growth in a cell viability assay.

A498 = type: functional, cell-based, Homo sapiens; details: Homo sapiens, A498;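 further: growth inhibition of human A498 cells, read out with a cell viability assay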
Description: SANGER: Inhibition of human A498 cell growth in a cell viability assay.

LAMA-84 = type: functional, cell-based, Homo sapiens; details: Homo sapiens, LAMA-84;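 further: growth inhibition of LAMA-84 cells, read out with a cell viability assay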
Description: SANGER: Inhibition of human LAMA-84 cell growth in a cell viability assay.

DMS-114 = type: functional, cell-based, Homo sapiens; details: Homo sapiens, DMS-114
SK-NEP-1 = type: functional, cell-based, Homo sapiens; details: Homo sapiens, SK-NEP-1;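 further: growth inhibition of human SK-NEP-1 cells, read out by a cell viability assay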
Description: SANGER: Inhibition of human SK-NEP-1 cell growth in a cell viability assay.

DSH1 = type: functional, cell-based, Homo sapiens; details: Homo sapiens, DSH1;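 further: growth inhibition of human DSH1 cells, measured with a cell viability readout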
Description: SANGER: Inhibition of human DSH1 cell growth in a cell viability assay.

UACC-257 = type: functional, cell-based, Homo sapiens; details: Homo sapiens, UACC-257
Description: SANGER: Inhibition of human UACC-257 cell growth in a cell viability assay.

IA-LM = type: functional, cell-based, Homo sapiens; details: Homo sapiens, IA-LM;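 further: cell viability assay measuring growth inhibition of human IA-LM cells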
Description: SANGER: Inhibition of human IA-LM cell growth in a cell viability assay.

COc1cc2ncn(-c3cc(OCc4ccccc4S(C)(=O)=O)c(C#N)s3)c2cc1OC [GSK-319347A]
IC50 (GR-ST): > 5 µM | IC50 (TE-1): > 5 µM | IC50 (L-428): > 5 µM | IC50 (DU-4475): > 5 µM | IC50 (SHP77): > 5 µM | IC50 (NCI-H82): > 5 µM | IC50 (NCI-H510A): > 5 µM | IC50 (HCE-T): > 5 µM | IC50 (LOX IMVI): > 5 µM | IC50 (NCI-H209): > 5000 nM | IC50 (EW-1): > 5 µM | IC50 (KG-1): > 5 µM | IC50 (QIMR-WIL): > 5000 nM | IC50 (NCI-H1650): > 5 µM | IC50 (SK-MEL-2): > 5 µM | IC50 (SF-539): > 5 µM | IC50 (OVCAR-4): > 5 µM | IC50 (CW-2): > 5 µM | IC50 (MN-60): > 5 µM | IC50 (GCIY): > 5 µM | IC50 (TGBC1TKB): > 5 µM | IC50 (GB-1): > 5 µM | IC50 (BB30-HNC): > 5000 nM | IC50 (DEL): > 5000 nM | IC50 (KARPAS-45): > 5000 nM | IC50 (KINGS-1): > 5 µM | IC50 (SBC-1): > 5000 nM | IC50 (no-10): > 5 µM | IC50 (NCI-H1299): > 5 µM | IC50 (GOTO): > 5 µM | IC50 (MZ1-PC): > 5 µM | IC50 (A3-KAW): > 5 µM | IC50 (GI-1): > 5 µM | IC50 (OCI-AML2): > 5 µM | IC50 (Lu-65): > 5 µM | IC50 (MLMA): > 5 µM | IC50 (U-266): > 5000 nM | IC50 (EW-13): > 5 µM | IC50 (KP-N-YS): > 5 µM | IC50 (NB13): > 5 µM | IC50 (NH-12): > 5 µM | IC50 (Ramos-2G6-4C10): > 5000 nM | IC50 (A498): > 5000 nM | IC50 (LAMA-84): > 5000 nM | IC50 (DMS-114): > 5000 nM | IC50 (SK-NEP-1): > 5000 nM | IC50 (DSH1): > 5 µM | IC50 (UACC-257): > 5 µM

CCN(CC)CCCCNc1ncc2cc(-c3cc(OC)cc(OC)c3)c(NC(=O)NC(C)(C)C)nc2n1 [PD-173074]
IC50 (GR-ST): > 2 µM | IC50 (TE-1): > 2 µM | IC50 (L-428): > 2 µM | IC50 (DU-4475): > 2 µM | IC50 (SHP77): > 2 µM | IC50 (NCI-H82): > 2 µM | IC50 (HCE-T): > 2 µM | IC50 (LOX IMVI): > 2 µM | IC50 (NCI-H209): > 2000 nM | IC50 (EW-1): > 2 µM | IC50 (KG-1): 0.0513 µM | IC50 (QIMR-WIL): > 2000 nM | IC50 (NCI-H1650): > 2 µM | IC50 (SK-MEL-2): > 2 µM | IC50 (SF-539): > 2 µM | IC50 (OVCAR-4): > 2 µM | IC50 (CW-2): > 2 µM | IC50 (MN-60): > 2 µM | IC50 (GCIY): > 2 µM | IC50 (TGBC1TKB): > 2 µM | IC50 (GB-1): > 2 µM | IC50 (BB30-HNC): > 2000 nM | IC50 (DEL): > 2000 nM | IC50 (KARPAS-45): > 2000 nM | IC50 (KINGS-1): > 2 µM | IC50 (SBC-1): > 2000 nM | IC50 (no-10): > 2 µM | IC50 (NCI-H1299): > 2 µM | IC50 (GOTO): > 2 µM | IC50 (MZ1-PC): > 2 µM | IC50 (A3-KAW): > 2 µM | IC50 (IA-LM): > 2 µM | IC50 (GI-1): > 2 µM | IC50 (OCI-AML2): > 2 µM | IC50 (Lu-65): > 2 µM | IC50 (MLMA): > 2 µM | IC50 (U-266): > 2000 nM | IC50 (EW-13): > 2 µM | IC50 (KP-N-YS): > 2 µM | IC50 (NB13): > 2 µM | IC50 (NH-12): > 2 µM | IC50 (Ramos-2G6-4C10): > 2000 nM | IC50 (A498): > 2000 nM | IC50 (LAMA-84): > 2000 nM | IC50 (DMS-114): 1370 nM | IC50 (SK-NEP-1): > 2000 nM | IC50 (DSH1): > 2 µM | IC50 (UACC-257): > 2 µM

COc1cc2c(Nc3ccc(NC(=O)c4ccccc4)cc3)ncnc2cc1OCCCN1CCOCC1
IC50 (GR-ST): > 4 µM | IC50 (TE-1): > 4 µM | IC50 (L-428): > 4 µM | IC50 (DU-4475): > 4 µM | IC50 (SHP77): > 4 µM | IC50 (NCI-H82): > 4 µM | IC50 (HCE-T): > 4 µM | IC50 (LOX IMVI): > 4 µM | IC50 (NCI-H209): 1170 nM | IC50 (EW-1): > 4 µM | IC50 (KG-1): 3.2 µM | IC50 (QIMR-WIL): 2060 nM | IC50 (NCI-H1650): > 4 µM | IC50 (SK-MEL-2): > 4 µM | IC50 (SF-539): > 4 µM | IC50 (OVCAR-4): > 4 µM | IC50 (CW-2): > 4 µM | IC50 (MN-60): > 4 µM | IC50 (GCIY): > 4 µM | IC50 (TGBC1TKB): > 4 µM | IC50 (GB-1): > 4 µM | IC50 (BB30-HNC): 2540 nM | IC50 (DEL): 2750 nM | IC50 (KARPAS-45): 381 nM | IC50 (KINGS-1): > 4 µM | IC50 (SBC-1): 1040 nM | IC50 (no-10): > 4 µM | IC50 (NCI-H1299): > 4 µM | IC50 (GOTO): > 4 µM | IC50 (MZ1-PC): > 4 µM | IC50 (A3-KAW): > 4 µM | IC50 (IA-LM): > 4 µM | IC50 (GI-1): 3.26 µM | IC50 (OCI-AML2): 3.68 µM | IC50 (Lu-65): > 4 µM | IC50 (MLMA): > 4 µM | IC50 (U-266): 2840 nM | IC50 (EW-13): > 4 µM | IC50 (KP-N-YS): > 4 µM | IC50 (NB13): > 4 µM | IC50 (NH-12): 3.28 µM | IC50 (Ramos-2G6-4C10): 1410 nM | IC50 (A498): 2370 nM | IC50 (LAMA-84): 1760 nM | IC50 (DMS-114): > 4000 nM | IC50 (SK-NEP-1): 1360 nM | IC50 (DSH1): > 4 µM | IC50 (UACC-257): > 4 µM
